Experimental data: patent publication US20230286970A1, “NOVEL OXADIAZOLE-BASED SELECTIVE HDAC6 INHIBITORS” (ITALFARMACO S.P.A., priority 2020, published 2023)

What was measured:
recombinant human HDAC6 = recombinant human HDAC6 (Homo sapiens (Human), UniProt Q9UBN7); experiment: Enzymatic screening, HDAC6 inhibition (fluorogenic FdL_G substrate); type: biochemical
Method: (§1) For each test compound, 100× concentrated DMSO solutions at 8 doses were prepared and then diluted in assay buffer (25 mM Tris-HCl, pH 8, 130 mM NaCl, 0.05% Tween-20, 10% Glycerol) to obtain 5× concentrated solutions in relation to the final concentrations (typical final concentration range—6.4-200000 nM or 0.18-50000 nM, final DMSO content—1%). Then 10 μL solution of each test compound concentration were placed on a 96-well plate in triplicate and 15 μL of 3.33× concentrated enzyme solution in the assay buffer containing 3.33× concentrated BSA (final BSA concentration—2 mg/mL for HDAC4, HDAC5 and HDAC9 or 1 mg/mL for other isoforms) and in the case of HDAC6-3.33× concentrated TCEP (final TCEP concentration—200 μM) were added to each well. After a period of preincubation (incubation times and temperatures vary for different isoforms and are shown in table 1) 25 μL of solution containing the substrate were added. As substrate, FLUOR DE LYS® deacetylase substrate (Enzo Life Sciences, cat: BML-KI104, FdL), FLUOR DE LYS®-Green substrate (Enzo Life Sciences, cat: BML-KI572, FdL_G) or Boc-Lys(Tfa)-AMC (Bachem, cat: 4060676.005, Tfal)—2× concentrated solution in assay buffer were used. Following a reaction period (reaction times and temperatures vary for different isoforms and are reported in Table 1), 50 μL of the development solution consisting of concentrate FLUOR DE LYS® developer I (Enzo Life Sciences, ca: BML-KI105), diluted 200 times in buffer (50 mM Tris-HCl, pH 8, 137 mM NaCl, 2.7 mM KCl, 1 mM MgCl2) plus 2 μM TSA was added and, after 25 minutes at room temperature in the dark, using the Victor 1420 Multilabel Counter Perkin Elmer Wallac instrument, the fluorescence reading was carried out.

recombinant human HDAC1 = recombinant human HDAC1 (Homo sapiens (Human), UniProt Q13547); experiment: Enzymatic screening, HDAC1 inhibition (fluorogenic FdL_G substrate); type: biochemical
Sequence of recombinant human HDAC1 (Q13547 whole entry): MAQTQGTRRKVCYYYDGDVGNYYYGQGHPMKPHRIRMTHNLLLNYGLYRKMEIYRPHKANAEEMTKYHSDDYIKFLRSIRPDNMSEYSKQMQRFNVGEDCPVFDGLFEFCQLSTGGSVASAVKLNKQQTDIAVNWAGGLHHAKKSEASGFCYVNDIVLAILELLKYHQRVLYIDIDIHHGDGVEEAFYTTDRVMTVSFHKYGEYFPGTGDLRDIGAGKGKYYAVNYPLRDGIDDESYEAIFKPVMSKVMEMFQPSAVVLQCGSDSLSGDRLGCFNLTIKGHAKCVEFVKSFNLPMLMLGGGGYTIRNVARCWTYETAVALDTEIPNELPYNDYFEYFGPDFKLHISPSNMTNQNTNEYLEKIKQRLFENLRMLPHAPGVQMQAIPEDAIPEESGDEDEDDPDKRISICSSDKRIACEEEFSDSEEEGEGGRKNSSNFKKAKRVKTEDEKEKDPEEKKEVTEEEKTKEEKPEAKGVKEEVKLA
Method: as §1

Sequence of recombinant human HDAC6 (Q9UBN7 whole entry, canonical isoform): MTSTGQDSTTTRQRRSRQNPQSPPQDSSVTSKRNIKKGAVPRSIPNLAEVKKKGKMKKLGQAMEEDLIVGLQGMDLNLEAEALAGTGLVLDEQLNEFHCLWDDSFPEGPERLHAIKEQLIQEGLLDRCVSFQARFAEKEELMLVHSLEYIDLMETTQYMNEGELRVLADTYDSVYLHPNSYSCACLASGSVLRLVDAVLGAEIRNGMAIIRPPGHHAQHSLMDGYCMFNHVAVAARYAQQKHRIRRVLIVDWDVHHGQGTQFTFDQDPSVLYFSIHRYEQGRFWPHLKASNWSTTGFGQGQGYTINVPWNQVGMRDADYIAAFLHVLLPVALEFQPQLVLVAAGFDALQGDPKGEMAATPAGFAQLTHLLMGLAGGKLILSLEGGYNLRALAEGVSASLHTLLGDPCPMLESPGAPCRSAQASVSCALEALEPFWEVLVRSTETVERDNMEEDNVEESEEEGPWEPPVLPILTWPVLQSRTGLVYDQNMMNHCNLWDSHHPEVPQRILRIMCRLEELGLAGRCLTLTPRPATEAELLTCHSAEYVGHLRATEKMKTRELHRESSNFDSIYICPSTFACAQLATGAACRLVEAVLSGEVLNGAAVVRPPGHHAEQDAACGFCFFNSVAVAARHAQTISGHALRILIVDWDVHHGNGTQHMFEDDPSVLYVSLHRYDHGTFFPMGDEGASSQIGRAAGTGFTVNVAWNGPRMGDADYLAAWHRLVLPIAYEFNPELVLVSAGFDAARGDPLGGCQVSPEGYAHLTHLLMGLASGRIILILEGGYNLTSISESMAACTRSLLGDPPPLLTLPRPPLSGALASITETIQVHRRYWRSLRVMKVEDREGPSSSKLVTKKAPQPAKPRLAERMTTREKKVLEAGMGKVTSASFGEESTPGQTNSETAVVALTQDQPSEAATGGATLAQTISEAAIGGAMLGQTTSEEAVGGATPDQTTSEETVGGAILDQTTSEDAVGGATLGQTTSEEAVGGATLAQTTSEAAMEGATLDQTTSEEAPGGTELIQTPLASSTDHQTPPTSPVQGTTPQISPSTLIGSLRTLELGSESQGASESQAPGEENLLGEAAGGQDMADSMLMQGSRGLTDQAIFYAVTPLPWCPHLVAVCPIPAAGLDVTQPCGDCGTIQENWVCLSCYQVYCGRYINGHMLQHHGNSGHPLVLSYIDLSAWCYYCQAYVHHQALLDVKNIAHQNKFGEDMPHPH

IC50 (recombinant human HDAC6) [nM]	IC50 (recombinant human HDAC1) [µM]	Structure (SMILES)
11	> 1000	Nc1nc2ccc(-c3cn(Cc4ccc(-c5nnc(C(F)F)o5)cn4)cn3)cc2s1 [compound 307, 6-[1-[[5-[5-(difluoromethyl)-1,3,4-oxadiazol-2-yl]pyridin-2-yl]methyl]imidazol-4-yl]-1,3-benzothiazol-2-amine]
102	> 200	Nc1cccc(-c2cn(Cc3ccc(-c4nnc(C(F)F)o4)cc3)nn2)c1 [compound 192, 3-(1-(4-(5-(difluoromethyl)-1,3,4-oxadiazol-2-yl)benzyl)-1H-1,2,3-triazol-4-yl)aniline]
22	> 1000	Nc1ccc(-c2cn([C@@H](CO)c3ccc(-c4nnc(C(F)F)o4)cc3)nn2)cn1 [compound 314, (2R)-2-[4-(6-aminopyridin-3-yl)triazol-1-yl]-2-[4-[5-(difluoromethyl)-1,3,4-oxadiazol-2-yl]phenyl]ethanol]
62	> 200	CN1CCN(C(=O)Nc2cccc(-c3cn(Cc4ccc(-c5nnc(C(F)F)o5)cc4)nn3)c2)CC1 [compound 146, N-(3-(1-(4-(5-(difluoromethyl)-1,3,4-oxadiazol-2-yl)benzyl)-1H-1,2,3-triazol-4-yl)phenyl)-4-methylpiperazine-1-carboxamide]
87	> 1000	O=C1NCc2ccc(-c3cnn(Cc4ccc(-c5nnc(C(F)F)o5)cc4)c3)cc21 [compound 319, 6-[1-[[4-[5-(difluoromethyl)-1,3,4-oxadiazol-2-yl]phenyl]methyl]pyrazol-4-yl]-2,3-dihydroisoindol-1-one]
12	> 1000	Fc1cc(-c2nnc(C(F)F)o2)ccc1Cn1cnc(-c2ccc(NC3=NCCN3)cc2)c1 [compound 357, N-[4-[1-[[4-[5-(difluoromethyl)-1,3,4-oxadiazol-2-yl]-2-fluorophenyl]methyl]imidazol-4-yl]phenyl]-4,5-dihydro-1H-imidazol-2-amine]
439	> 200	CN(Cc1ccc(-c2nc(Cc3ccc(-c4nnc(C(F)F)o4)cc3)no2)cc1)C(=O)C(F)F [compound 259, N-(4-(3-(4-(5-(difluoromethyl)-1,3,4-oxadiazol-2-yl)benzyl)-1,2,4-oxadiazol-5-yl)benzyl)-2,2-difluoro-N-methylacetamide]
32	> 1000	Nc1nc2ccc(-c3cn(Cc4ccc(-c5nnc(C(F)F)o5)cc4)cn3)cc2s1 [compound 306, 6-[1-[[4-[5-(difluoromethyl)-1,3,4-oxadiazol-2-yl]phenyl]methyl]imidazol-4-yl]-1,3-benzothiazol-2-amine]
48	178	Cn1c(N)nc2cc(-c3cn(Cc4ncc(-c5nnc(C(F)F)o5)cc4F)nn3)ccc21 [compound 349, 5-[1-[[5-[5-(difluoromethyl)-1,3,4-oxadiazol-2-yl]-3-fluoropyridin-2-yl]methyl]triazol-4-yl]-1-methylbenzimidazol-2-amine]
41	> 1000	Nc1nc2ccc(-c3cn(Cc4ccc(-c5nnc(C(F)F)o5)cc4Cl)nn3)cc2s1 [compound 340, 6-[1-[[2-chloro-4-[5-(difluoromethyl)-1,3,4-oxadiazol-2-yl]phenyl]methyl]triazol-4-yl]-1,3-benzothiazol-2-amine]
62	> 1000	Fc1c(Cn2nnc(-c3cccc(-c4nc5c([nH]4)CCNC5)c3)n2)ccc(-c2nnc(C(F)F)o2)c1F [compound 355, 2-(difluoromethyl)-5-[2,3-difluoro-4-[[5-[3-(4,5,6,7-tetrahydro-1H-imidazo[4,5-c]pyridin-2-yl)phenyl]tetrazol-2-yl]methyl]phenyl]-1,3,4-oxadiazole]
157	> 200	Nc1ccc(-c2cn(C(Cc3ccccc3)c3ccc(-c4nnc(C(F)F)o4)cc3)nn2)cn1 (stereo not drawn) [compound 221, 5-(1-(1-(4-(5-(difluoromethyl)-1,3,4-oxadiazol-2-yl)phenyl)-2-phenylethyl)-1H-1,2,3-triazol-4-yl)pyridin-2-amine]
40	> 1000	Nc1nc2ccc(-c3cnn(Cc4ccc(-c5nnc(C(F)F)o5)cn4)c3)cc2s1 [compound 327, 6-[1-[[5-[5-(difluoromethyl)-1,3,4-oxadiazol-2-yl]pyridin-2-yl]methyl]pyrazol-4-yl]-1,3-benzothiazol-2-amine]
49	> 200	O=C(Nc1ccc(-c2cn(Cc3ccc(-c4nnc(C(F)F)o4)cn3)cn2)cn1)C(F)F [compound 126, N-(5-(1-((5-(5-(difluoromethyl)-1,3,4-oxadiazol-2-yl)pyridin-2-yl)methyl)-1H-imidazol-4-yl)pyridin-2-yl)-2,2-difluoroacetamide]
89	> 200	FC(F)c1nnc(-c2ccc(Cn3cc(-c4cnc5cccnn45)nn3)cc2)o1 [compound 280, 2-(difluoromethyl)-5-(4-((4-(imidazo[1,2-b]pyridazin-3-yl)-1H-1,2,3-triazol-1-yl)methyl)phenyl)-1,3,4-oxadiazole]
157	> 200	FC(F)c1nnc(-c2ccc(Cn3nnc(-c4ccco4)n3)cc2)o1 [compound 220, 2-(difluoromethyl)-5-(4-((5-(furan-2-yl)-2H-tetrazol-2-yl)methyl)phenyl)-1,3,4-oxadiazole]
32	> 1000	Nc1nc2ccc(-c3cn(Cc4ncc(-c5nnc(C(F)F)o5)cc4F)nn3)cc2s1 [compound 342, 6-[1-[[5-[5-(difluoromethyl)-1,3,4-oxadiazol-2-yl]-3-fluoropyridin-2-yl]methyl]triazol-4-yl]-1,3-benzothiazol-2-amine]
216	> 200	Cc1nc(F)ccc1-c1cn(Cc2ccc(-c3nnc(C(F)F)o3)cc2)nn1 [compound 241, 2-(difluoromethyl)-5-(4-((4-(6-fluoro-2-methylpyridin-3-yl)-1H-1,2,3-triazol-1-yl)methyl)phenyl)-1,3,4-oxadiazole]
240	> 200	CCCCC(c1ccc(-c2nnc(C(F)F)o2)cc1)n1cc(-c2cccc(NC(=O)N3CCOCC3)c2)nn1 (stereo not drawn) [compound 244, N-(3-(1-(1-(4-(5-(difluoromethyl)-1,3,4-oxadiazol-2-yl)phenyl)pentyl)-1H-1,2,3-triazol-4-yl)phenyl)morpholine-4-carboxamide]
102	1000	CNc1ncc2cc(-c3cn(Cc4c(F)cc(-c5nnc(C(F)F)o5)cc4F)nn3)ccc2n1 [compound 392, 6-[1-({4-[5-(difluoromethyl)-1,3,4-oxadiazol-2-yl]-2,6-difluorophenyl}methyl)-1H-1,2,3-triazol-4-yl]-N-methylquinazolin-2-amine]
198	> 200	CN1CCC(NC(=O)c2ccc(-c3nnn(Cc4ccc(-c5nnc(C(F)F)o5)cc4)n3)cc2)CC1 [compound 232, 4-(2-(4-(5-(difluoromethyl)-1,3,4-oxadiazol-2-yl)benzyl)-2H-tetrazol-5-yl)-N-(1-methylpiperidin-4-yl)benzamide]
151	> 200	O=C1NCc2ccc(-c3nnnn3Cc3ncc(-c4nnc(C(F)F)o4)cn3)cc21 [compound 298, 6-(1-((5-(5-(difluoromethyl)-1,3,4-oxadiazol-2-yl)pyrimidin-2-yl)methyl)-1H-tetrazol-5-yl)isoindolin-1-one]
30	1000	[2H]C([2H])(c1ccc(-c2nnc(C(F)F)o2)c(F)c1F)n1cc(-c2ccc(N)nc2)nn1 [compound 385, 5-[1-[dideuterio-[4-[5-(difluoromethyl)-1,3,4-oxadiazol-2-yl]-2,3-difluorophenyl]methyl]triazol-4-yl]pyridin-2-amine]
203	> 200	FC(F)c1nnc(-c2ccc(Cn3nnnc3-c3cccc(-n4cccn4)c3)cc2)o1 [compound 289, 2-(4-((5-(3-(1H-pyrazol-1-yl)phenyl)-1H-tetrazol-1-yl)methyl)phenyl)-5-(difluoromethyl)-1,3,4-oxadiazole]
34	> 200	Nc1ccc(-c2cn(Cc3c(F)cc(-c4nnc(C(F)F)o4)cc3F)nn2)cc1 [compound 296, 4-(1-(4-(5-(difluoromethyl)-1,3,4-oxadiazol-2-yl)-2,6-difluorobenzyl)-1H-1,2,3-triazol-4-yl)aniline]
169	> 200	NC(=O)c1cccc(-c2noc(Cc3ccc(-c4nnc(C(F)F)o4)cc3)n2)c1 [Compd. 226, 3-(5-(4-(5-(difluoromethyl)-1,3,4-oxadiazol-2-yl)benzyl)-1,2,4-oxadiazol-3-yl)benzamide]
49	> 200	FC(F)c1nnc(-c2ccc(Cn3nnc(-c4ccc5ccncc5c4)n3)cc2)o1 [compound 127, 2-(difluoromethyl)-5-(4-((5-(isoquinolin-7-yl)-2H-tetrazol-2-yl)methyl)phenyl)-1,3,4-oxadiazole]
